# Tested on: A549 cells
# Test: Combination dose-matrix cell viability assay (CellTiter-Blue / alamar blue), A549
# Format: cell-based
# Details: in the presence of increasing concentrations of cladribine
# Text: The inhibition ranges from 0% at the untreated level to 100% when T=0.
# This effectively calculates a volume between the measured and Loewe additive response surfaces, weighted towards high inhibition and corrected for varying dilution factors.
compound,measurement,value
"CCN1CCN(Cc2ccc(-c3cc4c(N[C@H](C)c5ccccc5)ncnc4[nH]3)cc2)CC1 [{6-[4-(4-ethyl-piperazin-1-ylmethyl)-phenyl]-7H-pyrrolo[2,3-d]pyrimidin-4-yl]-((R)-1-phenyl-ethyl)-amine]",change in potency of the Erb-B/VEGF inhibitor,significant increase in the potency
